Laboratory results as given in ChEMBL document CHEMBL1126669, “A remarkable change of opioid receptor selectivity on the attachment of a peptidomimetic kappa address element to the delta antagonist, natrindole: 5'-[N2-alkylamidino)methyl]naltrindole derivatives as a novel class of kappa opioid receptor antagonists” (J Med Chem, 1993).

Tests used:
[1] = target: Mu-type opioid receptor (Cavia porcellus) (UniProt P97266); test: Ratio of IC50 of morphine (M) in the presence (100 nM) to that of morphine (M) alone, against mu opioid receptor in Guinea pig ileum preparation.; assay type: tissue-based
Chain of Mu-type opioid receptor (Cavia porcellus) (P97266 whole entry): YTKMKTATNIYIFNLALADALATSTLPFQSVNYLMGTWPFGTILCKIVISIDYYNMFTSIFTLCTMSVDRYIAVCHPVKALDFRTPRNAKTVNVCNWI

[2] = target: Opioid receptors; mu & kappa (Homo sapiens) (UniProt P41145+P35372); test: Selectivity ratio is IC50 value of kappa-opioid receptor to that of mu-opioid receptor; assay type: protein assay
Chain of Opioid receptors; mu & kappa (Homo sapiens) (P35372 whole entry, looked up): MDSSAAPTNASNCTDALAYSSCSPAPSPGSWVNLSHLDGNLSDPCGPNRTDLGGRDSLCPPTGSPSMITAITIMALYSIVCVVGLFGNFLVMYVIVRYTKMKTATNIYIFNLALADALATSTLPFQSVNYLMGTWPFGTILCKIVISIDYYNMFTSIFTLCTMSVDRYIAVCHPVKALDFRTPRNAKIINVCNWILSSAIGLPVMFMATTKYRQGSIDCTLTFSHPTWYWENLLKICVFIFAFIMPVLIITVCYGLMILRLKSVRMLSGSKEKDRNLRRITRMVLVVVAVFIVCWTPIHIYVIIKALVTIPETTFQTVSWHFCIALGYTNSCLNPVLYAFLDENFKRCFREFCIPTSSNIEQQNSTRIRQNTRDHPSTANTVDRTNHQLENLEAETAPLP
Chain of Opioid receptors; mu & kappa (Homo sapiens) (P41145 whole entry, looked up): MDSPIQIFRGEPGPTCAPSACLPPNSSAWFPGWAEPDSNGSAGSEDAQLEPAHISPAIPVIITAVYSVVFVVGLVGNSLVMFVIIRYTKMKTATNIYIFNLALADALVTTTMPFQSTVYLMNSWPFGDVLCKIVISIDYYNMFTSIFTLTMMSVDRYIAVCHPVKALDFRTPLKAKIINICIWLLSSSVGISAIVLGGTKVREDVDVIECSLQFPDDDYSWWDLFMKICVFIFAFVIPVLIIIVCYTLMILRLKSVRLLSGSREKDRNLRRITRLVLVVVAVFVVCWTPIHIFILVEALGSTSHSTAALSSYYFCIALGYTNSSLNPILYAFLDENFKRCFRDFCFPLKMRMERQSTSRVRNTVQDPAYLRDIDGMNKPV

[3] = target: Opioid receptors; delta & kappa (Homo sapiens) (UniProt P41145+P41143); test: Selectivity ratio is IC50 value of kappa-opioid receptor to that of delta-opioid receptor; assay type: protein assay
Chain of Opioid receptors; delta & kappa (Homo sapiens) (P41143 whole entry, looked up): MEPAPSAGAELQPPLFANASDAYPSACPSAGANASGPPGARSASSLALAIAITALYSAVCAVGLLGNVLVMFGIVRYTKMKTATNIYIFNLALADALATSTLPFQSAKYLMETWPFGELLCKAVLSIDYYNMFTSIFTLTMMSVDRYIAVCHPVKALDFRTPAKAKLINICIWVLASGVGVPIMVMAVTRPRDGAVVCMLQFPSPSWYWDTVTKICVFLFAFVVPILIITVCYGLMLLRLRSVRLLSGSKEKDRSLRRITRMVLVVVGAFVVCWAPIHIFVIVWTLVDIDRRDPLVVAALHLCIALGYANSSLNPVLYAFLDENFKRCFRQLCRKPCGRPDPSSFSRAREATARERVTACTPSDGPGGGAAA
Chain of Opioid receptors; delta & kappa (Homo sapiens) (P41145 whole entry, looked up): as the sequence (P41145 whole entry, looked up) above

[4] = target: Kappa-type opioid receptor (Cavia porcellus) (UniProt P41144); test: Ratio of IC50 of ethylketazocine (EK) in the presence (100 nM) to that of ethylketazocine (EK) alone, against kappa opioid receptor in Guinea pig ileum preparation; assay type: tissue-based
Chain of Kappa-type opioid receptor (Cavia porcellus) (P41144 whole entry): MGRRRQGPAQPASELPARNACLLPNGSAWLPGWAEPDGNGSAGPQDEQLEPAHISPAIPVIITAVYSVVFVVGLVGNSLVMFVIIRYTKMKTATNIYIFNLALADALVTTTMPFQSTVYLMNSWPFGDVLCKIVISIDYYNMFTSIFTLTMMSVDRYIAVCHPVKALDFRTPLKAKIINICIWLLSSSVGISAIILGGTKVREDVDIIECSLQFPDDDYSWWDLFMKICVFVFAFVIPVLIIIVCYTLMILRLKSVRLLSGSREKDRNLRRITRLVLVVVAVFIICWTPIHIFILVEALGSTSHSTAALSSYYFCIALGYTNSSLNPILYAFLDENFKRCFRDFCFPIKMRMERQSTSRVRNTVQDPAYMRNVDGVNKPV

[5] = target: Delta-type opioid receptor (Mus musculus) (UniProt P32300); test: Ratio of IC50 of [D-Ala2,D-Leu5]enkephalin (DADLE) in the presence (100 nM) to that of [(DADLE) alone, against delta opioid receptor in mouse vas deferens preparation
Chain of Delta-type opioid receptor (Mus musculus) (P32300 whole entry): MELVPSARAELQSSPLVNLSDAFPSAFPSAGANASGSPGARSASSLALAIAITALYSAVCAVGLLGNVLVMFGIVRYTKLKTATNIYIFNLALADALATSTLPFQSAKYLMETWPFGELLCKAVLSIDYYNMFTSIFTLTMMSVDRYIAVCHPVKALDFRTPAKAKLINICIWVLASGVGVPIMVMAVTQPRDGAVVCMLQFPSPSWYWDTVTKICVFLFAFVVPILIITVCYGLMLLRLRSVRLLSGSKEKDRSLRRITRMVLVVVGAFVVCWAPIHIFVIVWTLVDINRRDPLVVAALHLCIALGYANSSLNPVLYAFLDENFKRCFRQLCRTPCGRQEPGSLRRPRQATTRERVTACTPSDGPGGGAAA

[6] = target: Kappa-type opioid receptor (Cavia porcellus, UniProt P41144); test: Binding affinity for k opioid receptor was determined using [3H]U-69593 radioligand in Guinea pig brain membranes; assay type: cell membranes, Membrane
Chain of Kappa-type opioid receptor (P41144 whole entry): as the sequence (P41144 whole entry) above

[7] = target: Mu-type opioid receptor (Cavia porcellus, UniProt P97266); test: Binding affinity for mu opioid receptor was determined using radioligand [3H][D-Ala2,MePhe4,Gly-ol6]enkephalin (DAMGO) in Guinea pig brain membranes.; assay type: cell membranes
Chain of Mu-type opioid receptor (P97266 whole entry): as the sequence (P97266 whole entry) above

| Structure (SMILES) | IC50 ratio [1] | Selectivity ratio [2] | Selectivity ratio [3] | IC50 ratio [4] | IC50 ratio [5] | Ki [6] [nM] | Ki [7] [nM] |
| --- | --- | --- | --- | --- | --- | --- | --- |
| CCCC(=N)NCc1ccc2[nH]c3c(c2c1)C[C@@]1(O)[C@H]2Cc4ccc(O)c5c4[C@@]1(CCN2CC1CC1)C3O5 (stereo partly specified) | 19.3 | 10 | 62 | 185 | 3 | – | – |
| CCC(=N)NCc1ccc2[nH]c3c(c2c1)C[C@@]1(O)[C@H]2Cc4ccc(O)c5c4[C@@]1(CCN2CC1CC1)C3O5 (stereo partly specified) | 11.3 | 14 | 69 | 159 | 2.28 | – | – |
| CCCCC(=N)NCc1ccc2[nH]c3c(c2c1)C[C@@]1(O)[C@H]2Cc4ccc(O)c5c4[C@@]1(CCN2CC1CC1)C3O5 (stereo partly specified) | 15.7 | 28 | 93 | 439 | 4.71 | 0.061 | 3.5 |
| Oc1ccc2c3c1O[C@H]1c4[nH]c5c(c4C[C@@]4(O)[C@@H](C2)N(CC2CC2)CC[C@]314)C[C@@]1(O)[C@H]2Cc3ccc(O)c4c3[C@@]1(CCN2CC1CC1)[C@H]5O4 [NORBINALTORPHIMINE] | – | – | – | – | – | 0.28 | – |
| Oc1ccc2c3c1O[C@H]1c4[nH]c5ccccc5c4C[C@@]4(O)[C@@H](C2)N(CC2CC2)CC[C@]314 | 11.2 | – | – | 1.3 | 459 | – | – |
